What was measured:
SK-OV-3 [1] = assay: Cell cycle arrest in human SKOV3 cells assessed as accumulation at G2/M phase at 5 nM by flow cytometry (reference value: 14%); type: functional
SK-OV-3 [2] = assay: Cytotoxicity against human SKOV3 cells after 48 hrs by MTS assay; type: functional, cell-based; conditions: SK-OV-3, 48 h
SK-OV-3 [3] = assay: Cell cycle arrest in human SKOV3 cells assessed as accumulation at G1 phase at 5 nM by flow cytometry (reference value: 54%); type: functional
SK-OV-3 [4] = assay: Cell cycle arrest in human SKOV3 cells assessed as accumulation at S phase at 5 nM by flow cytometry (reference value: 31%); type: functional
HUVEC [5] = assay: Antivascular activity against HUVEC cells assessed as cell growth inhibition measured every 30 mins for 21 hrs by xCELLigence assay; type: functional, cell-based; conditions: Homo sapiens
Bos taurus = species on record: Bos taurus; assay: Inhibition of bovine tubulin polymerization at 5 uM measured every 30 secs for 60 mins by spectrophotometry relative to control
HUVEC [6] = assay: Antivascular activity against HUVEC cells assessed as cell growth inhibition after 24 hrs by xCELLigence assay; type: functional, cell-based; conditions: Homo sapiens
HUVEC [7] = assay: Antivascular activity against HUVEC cells assessed as cell growth inhibition after 48 hrs by xCELLigence assay; type: functional, cell-based; conditions: Homo sapiens
HeLa = assay: Cytotoxicity against human HeLa cells; type: functional, cell-based

COc1ccc(/C=C\c2cc(I)c(OC)c(I)c2)cc1O
Activity (SK-OV-3 [1]): 84%

COc1ccc(/C=C\c2cc(OC)c(OC)c(OC)c2)cc1O [COMBRETASTATIN A4]
IC50 (SK-OV-3 [2]): 1.7 nM | Activity (SK-OV-3 [3]): 40% | Activity (SK-OV-3 [4]): 23% | Activity (SK-OV-3 [1]): 31% | IC50 (HUVEC [5]): 2.2 nM | inhibition (Bos taurus): 57.6%

COc1ccc(/C=C\c2cc(Br)c(OC)c(Br)c2)cc1O
Activity (SK-OV-3 [1]): 54%

COc1ccc(/C=C\c2cc(OC)c(OC)c(OC)c2)c(O)c1O [COMBRETASTATIN A-1]
IC50 (HUVEC [6]): 2.6 nM | IC50 (HUVEC [7]): 4.1 nM

COc1cc(-c2nn[nH]c2-c2ccc(N)cc2)cc(OC)c1OC
IC50 (HeLa): 5000 nM

Reference: ChEMBL document CHEMBL1944536, “Increased endothelial cell selectivity of triazole-bridged dihalogenated A-ring analogues of combretastatin A-1” (Bioorg Med Chem, 2012)
